# Test results as given in paper PMC4607586 (Bioorganic & medicinal chemistry letters, 2015).
# Columns and labels:
# HIV-1 protease = HIV-1 protease (Human immunodeficiency virus type 1 group M subtype B, UniProt P04585); test: HIV-1 protease enzyme inhibition assay; assay type: biochemical; conditions: for improvement of protease inhibitory activity over 5b: relative to N-methyl-N-propyl amide 5b
# HIV-1 LAI = test: Antiviral assay using MT-2 cells exposed to HIV-1 LAI; assay type: cell-based
Structure (SMILES),enhanced potency over 5a (enzyme inhibition) (HIV-1 protease; relative to 5a) [fold],antiviral activity (in words) (HIV-1 LAI),improvement of protease inhibitory activity over 5b (HIV-1 protease)
CCCN(C)C(=O)c1cccc(C(=O)N[C@@H](Cc2ccccc2)[C@H](O)CN(CC(C)C)S(=O)(=O)c2ccc(OC)cc2)c1 [Inhibitor 5b],5,–,–
CCCN(CCC)C(=O)c1cccc(C(=O)N[C@@H](Cc2ccccc2)[C@H](O)CN(CC(C)C)S(=O)(=O)c2ccc(OC)cc2)c1 [Inhibitor 5e],–,no appreciable antiviral activity,–
COc1ccc(S(=O)(=O)N(CC(C)C)C[C@@H](O)[C@H](Cc2ccccc2)NC(=O)c2cccc(C(=O)N3CCOCC3)c2)cc1 [Inhibitor 5f],–,very good antiviral activity,over 10 fold
COc1ccc(S(=O)(=O)N(CC(C)C)C[C@@H](O)[C@H](Cc2ccccc2)NC(=O)c2cccc(C(=O)N3CCN(C)CC3)c2)cc1 [Inhibitor 5g],–,very good antiviral activity,over 10 fold
COC[C@@H]1C[C@@H](O)CN1C(=O)c1cccc(C(=O)N[C@@H](Cc2ccccc2)[C@H](O)CN(CC(C)C)S(=O)(=O)c2ccc(OC)cc2)c1 [Inhibitor 5h],–,moderate antiviral activity,–
COC[C@H]1C[C@H](O)CN1C(=O)c1cccc(C(=O)N[C@@H](Cc2ccccc2)[C@H](O)CN(CC(C)C)S(=O)(=O)c2ccc(OC)cc2)c1 [Inhibitor 5i],–,moderate antiviral activity,–
COC[C@H]1C[C@@H](O)CN1C(=O)c1cccc(C(=O)N[C@@H](Cc2ccccc2)[C@H](O)CN(CC(C)C)S(=O)(=O)c2ccc(OC)cc2)c1 [Inhibitor 5k],–,moderate antiviral activity,–
